Entries after “also recorded” stand apart in the source; their conditions may differ.
How the values were obtained:
IFNK = IFNK mRNA expression in keratinocytes (qRT-PCR); type: cell-based, human; details: all KO KCs treated, FIG. 3B
Method: (§1) Immortalized keratinocyte cell line, N/TERT1, was used with permission for generation of knock-out (KO) cell lines using non-homologous end joining via CRISPR/Cas9. […] N/TERTs were grown in Keratinocyte-SFM medium (ThermoFisher #17005-042) supplemented with 30 μg/ml bovine pituitary extract, 0.2 ng/ml epidermal growth factor, and 0.3 mM calcium chloride (2).
(§2) CRISPR KO KCs were generated as previously described (3). In brief, Single-guide RNA (sgRNA) target sequence was developed using a web interface for CRISPR design (https://portals.broadinstitute.org/gpp/public/analysis-tools/sgrna-design). Synthetic sgRNA target sequences were inserted into a cloning backbone, pSpCas9 (BB)-2A-GFP (PX458) (Addgene plasmid #48138) and then cloned into competent E. coli (ThermoFisher #C737303). Proper insertion was validated by Sanger sequencing. […] Cells were then genotyped and analyzed by Sanger sequencing.
(§3) RNA extraction, qRT-PCR and RNA-Sequencing were performed following the protocol published earlier (3). […] We used STAR to align RNA-seq reads to the human genome, using annotations of GENCODE as gene model. HTSeq was used to quantify gene expression levels; normalization and differential expression analysis were performed by DESeq2.

MX1 = MX1 (interferon-stimulated gene) mRNA expression in keratinocytes (qRT-PCR); type: cell-based, human; details: all KO KCs treated, FIG. 7
Method: as §1, §2, §3

## Nc1ncn([C@H]2C[C@H](O)[C@@H](CO)O2)c(=O)n1 [5-dAza-c]
IFNK
  IFNK mRNA expression in CRISPR-cas9 generated KO keratinocytes after demethylating agent: Reversal; also recorded: significant increase
MX1
  MX1 mRNA expression in CRISPR-cas9 generated KO keratinocytes after demethylating agent: significant increase
